According to patent publication US8106053B2, “5-phenyl-3-pyridazinone derivative” (Kowa Company, Ltd., priority 2007, dated 2012):

Test system: PAI-1 production in human airway epithelial cells (BEAS-2B)
Test: Activity of inhibiting PAI-1 production using airway epithelial cells (TGF-β stimulated, ELISA)
Format: cell-based
Details: BEAS-2B cells, 24 hours, PAI-1 in culture supernatant by ELISA
Description: The effect of a compound on PAI-1 production activity using airway epithelial cells was examined. This reflects PAI-1 concentration in the lung tissue related to fibrosis (lung).
The effect on the amount of PAI-1 produced using human airway epithelial cells (BEAS-2B) was examined. After 0.1 ml each of BEAS-2B cells prepared at 2×10^6 cells/ml was added to a collagen I-coated 96-well plate, preincubated for 24 hours, 0.1 ml of a medium containing […] TGF-β was added thereto and incubated for 24 hours, the amount of PAI-1 in the culture supernatant was determined using an ELISA kit. The test substance was dissolved in dimethyl sulfoxide (final concentration, 0.1% or less), and was prepared at 0.2, 1, 5 and 25 μM using a phosphate buffer, and added after preculturing. The activity of inhibiting PAI-1 production of the compound of the present invention was expressed in terms of the IC50 value and shown in Table 2.

For “5-(3-(cyclopropylmethyl)-4-methoxyphenyl)-2-methylpyridazin-3-one [Compound No. 2]”, the IC50 was 16.8 µM.

Same assay, conditions: Homo sapiens, BEAS-2B cells, 24 hours, PAI-1 in culture supernatant by ELISA

`COc1ccc(-c2cnn(C)c(=O)c2)cc1OC1CCCC1` [Compound No. 3, 5-(3-(cyclopentyloxy)-4-methoxyphenyl)-2-methylpyridazin-3-one] and `COc1ccc(-c2cnn(C)c(=O)c2)cc1OC1CCOC1` (centres unmarked) [Compound No. 12, 5-(4-methoxy-3-(3-tetrahydrofuranyloxy)phenyl)-2-methylpyridazin-3-one] are within 1.5-fold of each other in IC50: 5.8 µM for the first, 4 µM for the second.

Compared with `COc1ccc(-c2cn[nH]c(=O)c2)cc1OC` [Compound No. 1, 5-(3,4-dimethoxyphenyl)pyridazin-3-one], `COc1ccc(-c2cn[nH]c(=O)c2)cc1OC1CCOC1` (centres unmarked) [Compound No. 4, 5-(4-methoxy-3-(3-tetrahydrofuranyloxy)phenyl)pyridazin-3-one] is 1.7-fold lower in IC50: 14.1 µM for the first, 8.4 µM for the second. The second is the more potent here.

`COc1ccc(-c2cnn(C)c(=O)c2)cc1O[C@H]1CCOC1` [Compound No. 16, (S)-5-(4-methoxy-3-(3-tetrahydrofuranyloxy)phenyl)-2-methylpyridazin-3-one] showed an IC50 of 23.2 µM.

Test system: C57BL/6 mice, bleomycin-induced pulmonary fibrosis
Test: Bleomycin-induced pulmonary fibrosis model, amount of lung hydroxyproline
Format: in vivo
Details: 0.3 mg/kg orally once daily, three weeks after intratracheal bleomycin 6 mg/kg, relative to solvent-administration group
Source text: It has been reported that bleomycin administration into the trachea leads to pulmonary fibrosis. Its pathological findings including the hypertrophy and fibrosis of the alveolar wall, increased inflammatory cells, the increased amount of hydroxyproline etc. are similar to clinical idiopathic pulmonary fibrosis, and it has been often used as an experimental model of pulmonary fibrosis (Biochem. Biophys. Res. Comm. 288, 747 (2001)). To C57BL/6 mice (6-week-old, female), bleomycin hydrochloride (Bleo: NIPPON KAYAKU CO., LTD) (6 mg/kg, 25 μl/animal) was injected into the bronchus together with 500 μl of compressed air. Three weeks after administration into the trachea, the amount of hydroxyproline in the lung was determined. 0.3 mg/kg of the test substance was suspended in 0.5% carboxymethyl cellulose sodium, and orally administered once daily. The effect of the compound of the present invention was expressed in the inhibition percentage relative to the increased amount of lung hydroxyproline of the solvent-administration group, and shown in Table 3.

First: COc1ccc(-c2cnn(C)c(=O)c2)cc1OC1CCCC1 [Compound No. 3, 5-(3-(cyclopentyloxy)-4-methoxyphenyl)-2-methylpyridazin-3-one]
Second: COc1ccc(-c2cnn(Cc3ccc4ccccc4n3)c(=O)c2)cc1OC1CCCC1 [Compound No. 19, 5-(3-(cyclopentyloxy)-4-methoxyphenyl)-2-(2-quinolylmethyl)pyridazin-3-one]
The “Inhibition percentage relative to the increased amount of pulmonary hydroxyproline” value of the first is lower: 68% for the first, 132% for the second.

Compared with “5-(3-(cyclopropylmethyl)-4-methoxyphenyl)-2-methylpyridazin-3-one [Compound No. 2]”, `COc1ccc(-c2cnn(-c3ccccc3)c(=O)c2)cc1OC1CCCC1` [Compound No. 6, 5-(3-(cyclopentyloxy)-4-methoxyphenyl)-2-phenylpyridazin-3-one] is higher in “Inhibition percentage relative to the increased amount of pulmonary hydroxyproline” value: 66% for the first, 84% for the second.

With “5-(4-methoxy-3-(tetrahydrofuranyloxy)phenyl)-2-phenylpyridazin-3-one [Compound No. 9]” the “Inhibition percentage relative to the increased amount of pulmonary hydroxyproline” value was 117%.
